Assay results published in US9340590B2 (priority 2011, dated 2016).
Where two headings read alike, the source gives them in different places.

How the values were obtained:
Assay in all cases: cell-based
[1] = target: hNav1.3 (Homo sapiens, UniProt Q9NY46); settings: IonWorks Quattro, use-dependent protocol, hNav1.3; read-out: IWQ Use Nav1.3
[2] = target: hNav1.7 (Homo sapiens, UniProt Q15858); format: cell-based
[3] = target: hNav1.5 (Homo sapiens, UniProt Q14524)
[4] = IonWorks Quattro, use-dependent protocol, hNav1.7, read-out: IWQ Use Nav1.7
[5] = IonWorks Quattro, use-dependent protocol, hNav1.5, read-out: IWQ Use Nav1.5

hNav1.3, sequence (Q9NY46 whole entry, looked up): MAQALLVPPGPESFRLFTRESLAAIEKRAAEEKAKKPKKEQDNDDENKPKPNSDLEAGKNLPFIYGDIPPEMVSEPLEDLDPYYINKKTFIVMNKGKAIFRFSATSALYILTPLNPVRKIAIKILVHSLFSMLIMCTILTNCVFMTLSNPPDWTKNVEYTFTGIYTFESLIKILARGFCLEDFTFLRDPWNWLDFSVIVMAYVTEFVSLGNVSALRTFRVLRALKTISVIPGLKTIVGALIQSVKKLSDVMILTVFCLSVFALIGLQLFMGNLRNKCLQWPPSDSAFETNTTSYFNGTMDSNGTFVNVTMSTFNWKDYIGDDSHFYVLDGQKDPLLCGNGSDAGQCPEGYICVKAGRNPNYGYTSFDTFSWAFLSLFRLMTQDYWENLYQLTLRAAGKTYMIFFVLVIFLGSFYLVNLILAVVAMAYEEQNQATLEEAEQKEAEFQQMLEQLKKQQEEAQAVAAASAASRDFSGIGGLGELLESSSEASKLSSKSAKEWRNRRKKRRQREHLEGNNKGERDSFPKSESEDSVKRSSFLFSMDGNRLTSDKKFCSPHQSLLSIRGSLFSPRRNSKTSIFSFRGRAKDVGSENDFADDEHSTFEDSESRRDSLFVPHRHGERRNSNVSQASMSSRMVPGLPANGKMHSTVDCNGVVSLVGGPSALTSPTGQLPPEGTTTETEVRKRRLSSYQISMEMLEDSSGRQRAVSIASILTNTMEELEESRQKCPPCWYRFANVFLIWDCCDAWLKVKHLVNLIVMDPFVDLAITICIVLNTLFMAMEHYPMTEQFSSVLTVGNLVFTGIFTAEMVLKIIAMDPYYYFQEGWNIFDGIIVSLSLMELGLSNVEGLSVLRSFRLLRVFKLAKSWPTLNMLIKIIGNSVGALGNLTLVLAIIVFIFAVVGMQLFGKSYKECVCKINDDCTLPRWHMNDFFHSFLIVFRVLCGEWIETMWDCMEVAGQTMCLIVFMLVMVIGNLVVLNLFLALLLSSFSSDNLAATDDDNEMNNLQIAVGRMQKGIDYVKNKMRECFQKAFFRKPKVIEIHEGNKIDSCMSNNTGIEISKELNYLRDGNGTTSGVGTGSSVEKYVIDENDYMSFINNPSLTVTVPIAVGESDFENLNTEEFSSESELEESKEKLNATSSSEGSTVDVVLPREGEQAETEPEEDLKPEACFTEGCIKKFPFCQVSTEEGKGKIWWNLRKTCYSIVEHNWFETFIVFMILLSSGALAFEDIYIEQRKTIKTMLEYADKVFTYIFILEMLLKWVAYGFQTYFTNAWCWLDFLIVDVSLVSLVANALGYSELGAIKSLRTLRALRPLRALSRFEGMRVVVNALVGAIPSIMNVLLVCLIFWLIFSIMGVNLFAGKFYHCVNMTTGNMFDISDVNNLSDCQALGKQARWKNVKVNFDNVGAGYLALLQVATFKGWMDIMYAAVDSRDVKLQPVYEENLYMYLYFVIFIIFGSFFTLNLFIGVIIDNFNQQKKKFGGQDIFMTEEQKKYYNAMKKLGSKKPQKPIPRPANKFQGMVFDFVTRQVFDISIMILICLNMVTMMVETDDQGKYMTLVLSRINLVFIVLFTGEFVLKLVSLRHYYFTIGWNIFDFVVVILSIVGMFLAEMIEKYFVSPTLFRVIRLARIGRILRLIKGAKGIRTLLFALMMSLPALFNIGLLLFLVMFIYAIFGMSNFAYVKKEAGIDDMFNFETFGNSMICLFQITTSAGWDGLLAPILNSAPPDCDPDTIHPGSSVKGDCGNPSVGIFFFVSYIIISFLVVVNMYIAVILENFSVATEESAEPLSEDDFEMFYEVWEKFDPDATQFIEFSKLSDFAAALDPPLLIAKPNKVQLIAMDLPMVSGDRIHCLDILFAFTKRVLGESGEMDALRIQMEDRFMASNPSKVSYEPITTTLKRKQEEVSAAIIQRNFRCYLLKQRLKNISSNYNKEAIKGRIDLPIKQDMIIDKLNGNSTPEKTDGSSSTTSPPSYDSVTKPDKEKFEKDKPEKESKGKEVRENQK
hNav1.7, sequence (Q15858 whole entry, looked up): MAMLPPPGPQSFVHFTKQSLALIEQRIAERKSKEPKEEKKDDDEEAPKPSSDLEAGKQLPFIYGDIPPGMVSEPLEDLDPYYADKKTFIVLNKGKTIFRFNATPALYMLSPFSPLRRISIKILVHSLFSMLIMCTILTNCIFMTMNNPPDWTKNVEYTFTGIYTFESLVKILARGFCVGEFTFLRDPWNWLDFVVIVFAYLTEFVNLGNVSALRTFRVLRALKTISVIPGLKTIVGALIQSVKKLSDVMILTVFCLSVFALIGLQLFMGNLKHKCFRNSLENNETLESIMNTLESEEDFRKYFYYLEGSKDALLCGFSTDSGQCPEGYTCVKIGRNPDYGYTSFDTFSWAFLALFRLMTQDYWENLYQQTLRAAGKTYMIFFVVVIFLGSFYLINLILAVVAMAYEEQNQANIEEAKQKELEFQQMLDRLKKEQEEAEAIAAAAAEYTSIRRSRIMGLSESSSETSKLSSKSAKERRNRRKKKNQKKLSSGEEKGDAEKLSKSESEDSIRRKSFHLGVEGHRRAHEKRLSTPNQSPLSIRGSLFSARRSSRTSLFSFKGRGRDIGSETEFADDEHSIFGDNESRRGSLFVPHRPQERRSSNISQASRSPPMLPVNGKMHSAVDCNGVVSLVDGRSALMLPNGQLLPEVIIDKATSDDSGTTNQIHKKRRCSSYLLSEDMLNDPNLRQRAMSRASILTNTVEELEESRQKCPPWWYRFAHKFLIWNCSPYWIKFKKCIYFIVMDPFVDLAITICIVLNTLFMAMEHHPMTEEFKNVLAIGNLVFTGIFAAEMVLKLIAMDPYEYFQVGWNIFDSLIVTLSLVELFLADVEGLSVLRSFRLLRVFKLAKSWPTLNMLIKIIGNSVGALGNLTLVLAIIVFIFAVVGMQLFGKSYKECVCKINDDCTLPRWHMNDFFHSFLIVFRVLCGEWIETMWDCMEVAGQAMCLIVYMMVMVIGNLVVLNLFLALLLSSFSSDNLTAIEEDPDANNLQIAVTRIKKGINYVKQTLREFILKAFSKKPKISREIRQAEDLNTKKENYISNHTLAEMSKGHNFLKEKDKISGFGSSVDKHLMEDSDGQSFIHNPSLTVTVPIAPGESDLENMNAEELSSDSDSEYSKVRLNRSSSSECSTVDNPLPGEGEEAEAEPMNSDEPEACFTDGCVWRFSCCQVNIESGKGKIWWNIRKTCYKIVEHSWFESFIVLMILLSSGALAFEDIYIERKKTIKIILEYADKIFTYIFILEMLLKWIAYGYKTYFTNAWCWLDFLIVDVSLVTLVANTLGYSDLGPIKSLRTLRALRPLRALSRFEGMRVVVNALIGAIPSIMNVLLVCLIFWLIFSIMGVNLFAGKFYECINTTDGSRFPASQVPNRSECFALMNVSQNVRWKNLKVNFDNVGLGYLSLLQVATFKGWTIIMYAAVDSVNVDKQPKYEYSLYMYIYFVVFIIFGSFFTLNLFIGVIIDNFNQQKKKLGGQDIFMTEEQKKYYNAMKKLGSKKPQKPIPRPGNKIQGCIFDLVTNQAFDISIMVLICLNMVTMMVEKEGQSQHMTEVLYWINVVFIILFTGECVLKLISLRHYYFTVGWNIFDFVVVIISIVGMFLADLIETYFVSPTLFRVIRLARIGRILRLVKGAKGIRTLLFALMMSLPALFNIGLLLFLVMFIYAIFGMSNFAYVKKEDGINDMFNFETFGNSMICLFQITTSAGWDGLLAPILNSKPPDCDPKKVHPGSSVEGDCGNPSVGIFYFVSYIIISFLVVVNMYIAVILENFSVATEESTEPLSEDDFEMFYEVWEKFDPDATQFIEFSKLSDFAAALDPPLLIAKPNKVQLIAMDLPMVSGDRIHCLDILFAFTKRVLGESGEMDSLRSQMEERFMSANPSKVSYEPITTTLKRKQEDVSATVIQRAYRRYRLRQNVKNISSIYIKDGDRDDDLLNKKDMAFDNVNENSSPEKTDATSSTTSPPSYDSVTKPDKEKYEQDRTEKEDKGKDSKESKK

Structure (SMILES) | IC50 [1] [nM] | IC50 [2, 4] [nM] | IC50 [3, 5] [nM] | IC50 [2] [nM] | IC50 ([3]; IWQ Use Nav1.5) [nM]
CC[C@H](C)[C@@H]1NC(=O)[C@@H]2CSSC[C@@H]3NC(=O)[C@H](C(C)C)NC(=O)[C@H](CC(C)C)NC(=O)[C@H](CC(N)=O)NC(=O)[C@@H]4CCCN4C(=O)[C@H](CCCNC(=N)N)NC(=O)[C@H](CSSC[C@H](NC(=O)[C@@H](N)CC(=O)O)C(=O)N[C@@H](CC(C)C)C(=O)NCC(=O)N(C)CC(=O)N[C@@H](CC(C)C)C(=O)N[C@@H](CCCNC(=N)N)C(=O)N[C@@H](CCCCN)C(=O)N2)NC(=O)[C@H](CSSC[C@@H](C(=O)N[C@@H](CCCCN)C(=O)N[C@@H](Cc2ccc(O)cc2)C(=O)N[C@H](C(=O)N[C@@H](Cc2ccccc2)C(N)=O)C(C)C)NC(=O)[C@H](Cc2c[nH]c4ccccc24)NC(=O)[C@H](CCCCN)NC(=O)[C@H](Cc2c[nH]cn2)NC(=O)[C@H]([C@@H](C)O)NC(=O)[C@H](CCCNC(=N)N)NC(=O)[C@H](CO)NC3=O)NC(=O)[C@H](CCCCN)NC(=O)[C@H](CC(=O)O)NC(=O)[C@H](CC(N)=O)NC(=O)[C@H](CC(=O)O)NC(=O)[C@@H]2CCCN2C1=O [compound 646] | 1700 | 920 | > 5000 | – | –
CC[C@H](C)[C@@H]1NC(=O)[C@@H]2CSSC[C@@H]3NC(=O)[C@H](C(C)C)NC(=O)[C@H](CC(C)C)NC(=O)[C@H](CC(N)=O)NC(=O)[C@@H]4CCCN4C(=O)[C@H](CCCNC(=N)N)NC(=O)[C@H](CSSC[C@H](NC(=O)[C@@H](N)CC(=O)O)C(=O)N[C@@H](CC(C)C)C(=O)NCC(=O)N[C@H](C)C(=O)N[C@@H](CCSC)C(=O)N[C@@H](CCCNC(=N)N)C(=O)N[C@@H](CCCCN)C(=O)N2)NC(=O)[C@H](CSSC[C@@H](C(=O)N[C@@H](CCCCN)C(=O)N[C@@H](Cc2ccc(O)cc2)C(=O)N[C@H](C(=O)N[C@@H](Cc2ccccc2)C(N)=O)C(C)C)NC(=O)[C@H](Cc2c[nH]c4ccccc24)NC(=O)[C@H](CCCCN)NC(=O)[C@H](Cc2c[nH]cn2)NC(=O)[C@H]([C@@H](C)O)NC(=O)[C@H](CCCNC(=N)N)NC(=O)[C@H](CO)NC3=O)NC(=O)[C@H](CCCCN)NC(=O)[C@H](CC(=O)O)NC(=O)[C@H](CC(N)=O)NC(=O)[C@H](CC(=O)O)NC(=O)[C@@H]2CCCN2C1=O [compound 647] | > 5000 | – | > 5000 | 4500 | –
CC[C@H](C)[C@@H]1NC(=O)[C@@H]2CSSC[C@@H]3NC(=O)[C@H](C(C)C)NC(=O)[C@H](CC(C)C)NC(=O)[C@H](CC(N)=O)NC(=O)[C@@H]4CCCN4C(=O)[C@H](CCCNC(=N)N)NC(=O)[C@H](CSSC[C@H](NC(=O)[C@@H](N)CC(=O)O)C(=O)N[C@@H](CC(C)C)C(=O)NCC(=O)NCCC(=O)N[C@@H](CCSC)C(=O)N[C@@H](CCCNC(=N)N)C(=O)N[C@@H](CCCCN)C(=O)N2)NC(=O)[C@H](CSSC[C@@H](C(=O)N[C@@H](CCCCN)C(=O)N[C@@H](Cc2ccc(O)cc2)C(=O)N[C@H](C(=O)N[C@@H](Cc2ccccc2)C(N)=O)C(C)C)NC(=O)[C@H](Cc2c[nH]c4ccccc24)NC(=O)[C@H](CCCCN)NC(=O)[C@H](Cc2c[nH]cn2)NC(=O)[C@H]([C@@H](C)O)NC(=O)[C@H](CCCNC(=N)N)NC(=O)[C@H](CO)NC3=O)NC(=O)[C@H](CCCCN)NC(=O)[C@H](CC(=O)O)NC(=O)[C@H](CC(N)=O)NC(=O)[C@H](CC(=O)O)NC(=O)[C@@H]2CCCN2C1=O [compound 648] | > 5000 | 4700 | > 5000 | – | –
CC[C@@H]1NC(=O)CNC(=O)[C@H](CC(C)C)NC(=O)[C@@H](NC(=O)[C@@H](N)CC(=O)O)CSSC[C@@H]2NC(=O)[C@@H]3CSSC[C@@H](C(=O)N[C@@H](CCCCN)C(=O)N[C@@H](Cc4ccc(O)cc4)C(=O)N[C@H](C(=O)N[C@@H](Cc4ccccc4)C(N)=O)C(C)C)NC(=O)[C@H](Cc4c[nH]c5ccccc45)NC(=O)[C@H](CCCCN)NC(=O)[C@H](Cc4cnc[nH]4)NC(=O)[C@H]([C@@H](C)O)NC(=O)[C@H](CCCNC(=N)N)NC(=O)[C@H](CO)NC(=O)[C@H](CSSC[C@H](NC(=O)[C@H](CCCCN)NC(=O)[C@H](CCCNC(=N)N)NC(=O)[C@H](CCSC)NC1=O)C(=O)N[C@@H]([C@@H](C)CC)C(=O)N1CCC[C@H]1C(=O)N[C@@H](CC(=O)O)C(=O)N[C@@H](CC(N)=O)C(=O)N[C@@H](CC(=O)O)C(=O)N[C@@H](CCCCN)C(=O)N3)NC(=O)[C@H](C(C)C)NC(=O)[C@H](CC(C)C)NC(=O)[C@H](CC(N)=O)NC(=O)[C@@H]1CCCN1C(=O)[C@H](CCCNC(=N)N)NC2=O [compound 649] | 1300 | 690 | > 5000 | – | –
CCC[C@@H]1NC(=O)CNC(=O)[C@H](CC(C)C)NC(=O)[C@@H](NC(=O)[C@@H](N)CC(=O)O)CSSC[C@@H]2NC(=O)[C@@H]3CSSC[C@@H](C(=O)N[C@@H](CCCCN)C(=O)N[C@@H](Cc4ccc(O)cc4)C(=O)N[C@H](C(=O)N[C@@H](Cc4ccccc4)C(N)=O)C(C)C)NC(=O)[C@H](Cc4c[nH]c5ccccc45)NC(=O)[C@H](CCCCN)NC(=O)[C@H](Cc4cnc[nH]4)NC(=O)[C@H]([C@@H](C)O)NC(=O)[C@H](CCCNC(=N)N)NC(=O)[C@H](CO)NC(=O)[C@H](CSSC[C@H](NC(=O)[C@H](CCCCN)NC(=O)[C@H](CCCNC(=N)N)NC(=O)[C@H](CCSC)NC1=O)C(=O)N[C@@H]([C@@H](C)CC)C(=O)N1CCC[C@H]1C(=O)N[C@@H](CC(=O)O)C(=O)N[C@@H](CC(N)=O)C(=O)N[C@@H](CC(=O)O)C(=O)N[C@@H](CCCCN)C(=O)N3)NC(=O)[C@H](C(C)C)NC(=O)[C@H](CC(C)C)NC(=O)[C@H](CC(N)=O)NC(=O)[C@@H]1CCCN1C(=O)[C@H](CCCNC(=N)N)NC2=O [compound 650] | 570 | – | > 5000 | 200 | –
CCCC[C@@H]1NC(=O)CNC(=O)[C@H](CC(C)C)NC(=O)[C@@H](NC(=O)[C@@H](N)CC(=O)O)CSSC[C@@H]2NC(=O)[C@@H]3CSSC[C@@H](C(=O)N[C@@H](CCCCN)C(=O)N[C@@H](Cc4ccc(O)cc4)C(=O)N[C@H](C(=O)N[C@@H](Cc4ccccc4)C(N)=O)C(C)C)NC(=O)[C@H](Cc4c[nH]c5ccccc45)NC(=O)[C@H](CCCCN)NC(=O)[C@H](Cc4c[nH]cn4)NC(=O)[C@H]([C@@H](C)O)NC(=O)[C@H](CCCNC(=N)N)NC(=O)[C@H](CO)NC(=O)[C@H](CSSC[C@H](NC(=O)[C@H](CCCCN)NC(=O)[C@H](CCCNC(=N)N)NC(=O)[C@H](CCSC)NC1=O)C(=O)N[C@@H]([C@@H](C)CC)C(=O)N1CCC[C@H]1C(=O)N[C@@H](CC(=O)O)C(=O)N[C@@H](CC(N)=O)C(=O)N[C@@H](CC(=O)O)C(=O)N[C@@H](CCCCN)C(=O)N3)NC(=O)[C@H](C(C)C)NC(=O)[C@H](CC(C)C)NC(=O)[C@H](CC(N)=O)NC(=O)[C@@H]1CCCN1C(=O)[C@H](CCCNC(=N)N)NC2=O [compound 651] | 170 | 77 | – | – | > 5000
CC[C@H](C)[C@@H]1NC(=O)[C@@H]2CSSC[C@@H]3NC(=O)[C@H](C(C)C)NC(=O)[C@H](CC(C)C)NC(=O)[C@H](CC(N)=O)NC(=O)[C@@H]4CCCN4C(=O)[C@H](CCCNC(=N)N)NC(=O)[C@H](CSSC[C@H](NC(=O)[C@@H](N)CC(=O)O)C(=O)N[C@@H](CC(C)C)C(=O)NCC(=O)N(C)[C@@H](Cc4ccccc4)C(=O)N[C@@H](CCSC)C(=O)N[C@@H](CCCNC(=N)N)C(=O)N[C@@H](CCCCN)C(=O)N2)NC(=O)[C@H](CSSC[C@@H](C(=O)N[C@@H](CCCCN)C(=O)N[C@@H](Cc2ccc(O)cc2)C(=O)N[C@H](C(=O)N[C@@H](Cc2ccccc2)C(N)=O)C(C)C)NC(=O)[C@H](Cc2c[nH]c4ccccc24)NC(=O)[C@H](CCCCN)NC(=O)[C@H](Cc2c[nH]cn2)NC(=O)[C@H]([C@@H](C)O)NC(=O)[C@H](CCCNC(=N)N)NC(=O)[C@H](CO)NC3=O)NC(=O)[C@H](CCCCN)NC(=O)[C@H](CC(=O)O)NC(=O)[C@H](CC(N)=O)NC(=O)[C@H](CC(=O)O)NC(=O)[C@@H]2CCCN2C1=O [compound 657] | 280 | 360 | – | – | > 5000
CC[C@H](C)[C@@H]1NC(=O)[C@@H]2CSSC[C@@H]3NC(=O)[C@H](C(C)C)NC(=O)[C@H](CC(C)C)NC(=O)[C@H](CC(N)=O)NC(=O)[C@@H]4CCCN4C(=O)[C@H](CCCNC(=N)N)NC(=O)[C@H](CSSC[C@H](NC(=O)[C@@H](N)CC(=O)O)C(=O)N[C@@H](CC(C)C)C(=O)NCC(=O)N[C@@H](C(C)(C)C)C(=O)N[C@@H](CC(C)C)C(=O)N[C@@H](CCCNC(=N)N)C(=O)N[C@@H](CCCCN)C(=O)N2)NC(=O)[C@H](CSSC[C@@H](C(=O)N[C@@H](CCCCN)C(=O)N[C@@H](Cc2ccc(O)cc2)C(=O)N[C@H](C(=O)N[C@@H](Cc2ccccc2)C(N)=O)C(C)C)NC(=O)[C@H](Cc2c[nH]c4ccccc24)NC(=O)[C@H](CCCCN)NC(=O)[C@H](Cc2c[nH]cn2)NC(=O)[C@H]([C@@H](C)O)NC(=O)[C@H](CCCNC(=N)N)NC(=O)[C@H](CO)NC3=O)NC(=O)[C@H](CCCCN)NC(=O)[C@H](CC(=O)O)NC(=O)[C@H](CC(N)=O)NC(=O)[C@H](CC(=O)O)NC(=O)[C@@H]2CCCN2C1=O [compound 659] | 580 | 260 | > 5000 | – | –
CC[C@H](C)[C@@H]1NC(=O)[C@@H]2CSSC[C@@H]3NC(=O)[C@H](C(C)C)NC(=O)[C@H](CC(C)C)NC(=O)[C@H](CC(N)=O)NC(=O)[C@@H]4CCCN4C(=O)[C@H](CCCNC(=N)N)NC(=O)[C@H](CSSC[C@H](NC(=O)[C@@H](N)CC(=O)O)C(=O)N[C@@H](CC(C)C)C(=O)NCC(=O)N[C@@H](CCC(C)C)C(=O)N[C@@H](CC(C)C)C(=O)N[C@@H](CCCNC(=N)N)C(=O)N[C@@H](CCCCN)C(=O)N2)NC(=O)[C@H](CSSC[C@@H](C(=O)N[C@@H](CCCCN)C(=O)N[C@@H](Cc2ccc(O)cc2)C(=O)N[C@H](C(=O)N[C@@H](Cc2ccccc2)C(N)=O)C(C)C)NC(=O)[C@H](Cc2c[nH]c4ccccc24)NC(=O)[C@H](CCCCN)NC(=O)[C@H](Cc2c[nH]cn2)NC(=O)[C@H]([C@@H](C)O)NC(=O)[C@H](CCCNC(=N)N)NC(=O)[C@H](CO)NC3=O)NC(=O)[C@H](CCCCN)NC(=O)[C@H](CC(=O)O)NC(=O)[C@H](CC(N)=O)NC(=O)[C@H](CC(=O)O)NC(=O)[C@@H]2CCCN2C1=O [compound 660] | 59 | 31 | > 5000 | – | –
